Data on ten substances can be found in patent US20080027145A1, “Therapeutic Molecules and Methods for Generating and/or Selecting Same” (priority 2004, published 2008).

Entries after “also recorded” stand apart in the source; their conditions may differ. Read-outs that look alike come from different tables or passages of the source. Ends that are not written are not given here. Some results are limits rather than exact numbers.

For assay [1], the system named is mouse embryonic fibroblasts (MEFs). The assay can be described thus: Long-term colony assay of retrovirally infected MEFs. The assay is classed as cell-based. To be noted: colonies after 6 days. How it is done: FIG. 7 is a graphical representation showing that BH3-only proteins that bind selective targets have weak killing activity. (A) The affinities of BH3-only peptides for pro-survival proteins (tabulated in FIG. 3A) were inversely plotted to facilitate comparison of the patterns of BH3 binding. […] Immortalized 3T9 MEFs were infected with retroviruses expressing only GFP (control), or one of the BH3-only proteins and GFP. The viability of the infected (GFP^+ve) cells was determined by PI exclusion 24 hours after infection. The histograms represent means±1SD of at least 3 experiments. […] The filter was probed with a rat monoclonal anti-FLAG antibody. *Degradation product of Mcl-1. […] Viability of MEFs infected with retroviruses encoding the indicated proteins (GFP^+ve) was analyzed 24 hours after infection. The histograms represent means±1SD of at least 3 experiments. (E) Long-term survival of MEFs infected with BH3 expressing retroviruses. One hundred retrovirally-infected cells were plated and the absolute number of GFP^+ve colonies formed after 6 days scored. […] The data represent the average number of GFP^+ve colonies formed±1SD from at least 3 experiments. […] Viability of the infected (GFP^+ve) cells was scored 24 hours after infection (FIGS. 7A, 7B) and in long-term colony assays (FIG. 7E).

The test system is the same in assay [2]. The assay can be described thus: Killing of MEFs after retroviral expression, viability 24 hours after infection. The assay is classed as cell-based. Particulars: retroviral expression, 24 hours after infection. How it is done: FIG. 7 is a graphical representation showing that BH3-only proteins that bind selective targets have weak killing activity. (A) The affinities of BH3-only peptides for pro-survival proteins (tabulated in FIG. 3A) were inversely plotted to facilitate comparison of the patterns of BH3 binding. […] Immortalized 3T9 MEFs were infected with retroviruses expressing only GFP (control), or one of the BH3-only proteins and GFP. The viability of the infected (GFP^+ve) cells was determined by PI exclusion 24 hours after infection. The histograms represent means±1SD of at least 3 experiments. […] The filter was probed with a rat monoclonal anti-FLAG antibody. *Degradation product of Mcl-1. […] Viability of MEFs infected with retroviruses encoding the indicated proteins (GFP^+ve) was analyzed 24 hours after infection. The histograms represent means±1SD of at least 3 experiments. (E) Long-term survival of MEFs infected with BH3 expressing retroviruses. One hundred retrovirally-infected cells were plated and the absolute number of GFP^+ve colonies formed after 6 days scored. […] The data represent the average number of GFP^+ve colonies formed±1SD from at least 3 experiments. To assess the biological relevance of the selective binding, retroviral delivery was used to compare the ability of different BH3-only proteins to kill wild-type mouse embryonic fibroblasts (MEFs). To monitor expression of the introduced gene, a vector (pMIG) in which its expression is coupled via an internal ribosomal entry site (IRES) to that of green fluorescent protein (GFP) was used (Van Parijs et al., Immunity 11:281-288, 1999). The cells were efficiently infected (>90%) and the introduced BH3-only proteins were comparably expressed. Viability of the infected (GFP^+ve) cells was scored 24 hours after infection (FIGS. 7A, 7B) and in long-term colony assays (FIG. 7E). […] Thus, the neutralization of Mcl-1 by Noxa should be complemented by co-expression of a BadBH3 to neutralize Bcl-2 and Bcl-xL in MEFs (FIG. 8A).

The test system of assay [3] is pro-survival proteins (Bcl-2, Bcl-xL, Bcl-w, Mcl-1, A1). The assay can be described thus: Solution competition assay, statements spanning several pro-survival proteins. The assay is classed as binding, human and mouse. Particulars: for binding preference among pro-survival proteins: Bcl-2, Bcl-xL, Bcl-w, Mcl-1, A1. As to the method:
(§1) The relative affinities of BH3 peptides for pro-survival Bcl-2 proteins were assessed by comparing their abilities to compete with immobilized ^wtBimBH3 peptide for binding to Bcl-2-like proteins (Wilson-Annan et al., Supra). A fixed sub-saturating amount (10 nM) of a pro-survival Bcl-2 protein was incubated with varying amounts of competitor BH3 peptide in HBS for >2 hr on ice. The mixtures were then injected over a sensor chip containing a channel bearing mouse ^wtBimBH3 and a control channel with mouse ^4EBimBH3 immobilized. The baseline response (control channel) was subtracted to obtain the absolute binding response. Taking the response for the pro-survival protein alone as the maximal response (100%), the relative residual binding (%) in the presence of increasing amounts of competitor peptides at a given injection time point (430 s) was then calculated. […] Theoretically, IC50=[A]/2+KD, where [A] is the analyte concentration.
(§2) Some of recombinant proteins (Bcl-2, Bcl-xL, A1) studied contain cysteine residues but the behavior of Bcl-2 or Bcl-xL was not affected by dithiothreitol (DTT).
(§3) To assess if other BH3 peptides bind pro-survival proteins similarly, we directly compared their binding affinities in solution using a competitive binding assay. In such assays, the quality and absolute quantity of target proteins are less critical than in direct binding, and solution binding precludes the steric hindrance encountered with some immobilized peptides. FIG. 1C illustrates the approach: pre-incubation of Bcl-xL in solution with increasing amounts of BikBH3 reduced its binding to ^wtBimBH3 (FIG. 1D). From the attenuation in binding, the IC50 (competitor peptide concentration that halves binding) of BikBH3 can be calculated (FIG. 1E). As the IC50 values reflect relative binding affinities (see Experimental Procedures), we used this assay to compare the binding affinities of eight BH3 peptides (Table 3) to the five pro-survival proteins. […] Their binding properties fell into several classes (FIG. 2B and FIG. 4). […] Contrary to the prevailing view, the pro-survival proteins also had unique patterns for BH3 binding: Bcl-xL behaved like Bcl-w, with Bcl-2 more distinct, whereas Mcl-1 and A1 formed a separate group (FIG. 2B).

The target in the next assay is T1, Bcl-xL (Homo sapiens, UniProt Q07817).
T1 construct: Human Bcl-xL (Acc. no. NP_612815; residues 1-209); GST (N, cleaved yes); made in house
As to the kind of experiment: Solution competition assay (competition with immobilized wtBimBH3, biosensor). The assay is classed as binding. To be noted: for fold tighter than wild-type peptide: IC50 ratio to wild-type Noxa BH3; for increase in binding to Bcl-xL: versus wt NoxaBH3. How it is done: as §1, §2, §3

For another assay, the target named is T2, Bcl-2 (Homo sapiens, UniProt P10415).
T2 construct: Human Bcl-2 (Acc. no. NP_000624; residues 1-217); made in house
The assay is described as above. To be noted: for binding to Bcl-2: Noxa mutant peptides. Type of assay: binding. How it is done: as §1, §2, §3

A further assay deals with T3, Bcl-w (Homo sapiens, UniProt Q92843, A128E/C29S).
T3 construct: human Bcl-w (Acc. no. NP_004041; residues 1-164; C29S A128E); made in house
T3 sequence (Q92843 1-164 C29S/A128E): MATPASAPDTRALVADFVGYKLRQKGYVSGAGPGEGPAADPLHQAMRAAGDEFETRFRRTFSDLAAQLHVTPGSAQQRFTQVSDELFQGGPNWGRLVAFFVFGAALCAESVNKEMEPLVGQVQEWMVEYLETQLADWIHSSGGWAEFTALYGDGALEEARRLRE
The assay is described as above. Type of assay: binding. How it is done: as §1, §2, §3

The target of the next assay is T4, A1 ΔC20 (Mus musculus, UniProt Q07440).
T4 construct: mouse A1 (Acc. no. NP_033872; residues 1-152); GST (N, cleaved yes); made in house
T4 sequence (Q07440 1-152): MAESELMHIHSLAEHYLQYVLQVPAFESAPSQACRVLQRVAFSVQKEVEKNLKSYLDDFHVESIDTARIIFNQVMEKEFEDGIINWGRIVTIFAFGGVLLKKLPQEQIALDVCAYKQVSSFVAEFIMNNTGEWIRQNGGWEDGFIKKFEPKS
As to the kind of experiment: Direct binding to immobilized BH3 peptide, Biacore biosensor. To be noted: BadBH3 or NoxaBH3 immobilized chip. As to the method:
(§4) Recombinant human Bcl-xL ΔC24, mouse Mcl-1 ΔN151 ΔC23 and mouse A1 ΔC20 were expressed as GST fusion proteins and cleaved off Glutathione Sepharose columns as described (Day et al., Cell Death Differ 6:1125-1132, 1999; Hinds et al., EMBO J 22:1497-1507, 2003).
(§5) Affinity measurements were performed at room temperature on a Biacore 3000 biosensor (Biacore) with HBS (10 mM HEPES pH 7.2, 150 mM NaCl, 3.4 mM EDTA, 0.005% Tween 20) as the running buffer. Mouse 26-mer ^wtBimBH3, ^4EBimBH3 mutant, BadBH3, NoxaBH3 or control irrelevant peptides were immobilized onto CM5 sensor chips using amine-coupling chemistry (Wilson-Annan et al., Supra). To assess the binding affinities of pro-survival Bcl-2-like proteins for BimBH3 directly, the proteins were directly injected into the sensor chip at 20 μl/min. Residual bound proteins were desorbed with 50 mM NaOH or 6 M GuHCl (pH 7.2), followed by two washes with running buffer. Binding kinetics were derived from sensorgrams, following subtraction of baseline responses, using BIA evaluation software (version 3, Biacore) (Wilson-Annan et al., Supra).
(§6) The binding constants of the pro-survival molecules for ^wtBimBH3, immobilized on sensor chip, were determined using biosensor experiments as described in Hinds et al., Supra; Wilson-Annan et al., Supra.
(In general: Surface plasmon resonance follows binding to a sensor surface in real time, without labels.)

Another assay has as its target T5, Mcl-1 ΔN151 ΔC23 (Mus musculus, UniProt P97287).
T5 construct: mouse Mcl-1 (Acc. no. NP_031588; residues 152-308); GST (N, cleaved yes); made in house
Described as above. Particulars: BadBH3 or NoxaBH3 immobilized chip. As to the method: as §4, §5, §6

The target in a further assay is T6, Mcl-1 (Mus musculus, UniProt P97287).
T6 construct: mouse Mcl-1 (Acc. no. NP_031588; residues 152-308); GST (N, cleaved yes); made in house
As to the kind of experiment: Solution competition assay (competition with immobilized wtBimBH3, biosensor). Particulars: versus wt NoxaBH3. The assay is classed as binding. As to the method:
as §1, §2, §3

[4] abbreviates: competitor peptide vs immobilized wtBimBH3, read-out: IC50 for Bcl-xL.

T1 sequence (Q07817 1-209): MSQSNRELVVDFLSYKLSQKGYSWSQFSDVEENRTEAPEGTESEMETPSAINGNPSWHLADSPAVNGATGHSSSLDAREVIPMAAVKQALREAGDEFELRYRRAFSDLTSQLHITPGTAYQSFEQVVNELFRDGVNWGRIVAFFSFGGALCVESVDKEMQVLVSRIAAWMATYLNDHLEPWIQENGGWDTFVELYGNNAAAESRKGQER
T2 sequence (P10415 1-217): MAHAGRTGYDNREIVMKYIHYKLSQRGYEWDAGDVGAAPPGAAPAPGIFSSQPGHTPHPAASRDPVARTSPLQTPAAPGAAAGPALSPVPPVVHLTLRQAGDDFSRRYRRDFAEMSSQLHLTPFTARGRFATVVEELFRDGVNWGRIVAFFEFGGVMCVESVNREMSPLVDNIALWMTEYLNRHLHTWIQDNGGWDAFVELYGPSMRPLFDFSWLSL
T6 sequence (P97287 152-308): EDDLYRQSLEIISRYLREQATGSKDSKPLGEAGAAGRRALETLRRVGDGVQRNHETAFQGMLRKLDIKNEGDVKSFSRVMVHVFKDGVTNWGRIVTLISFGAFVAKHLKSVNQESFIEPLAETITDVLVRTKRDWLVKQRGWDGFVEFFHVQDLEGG
T5 sequence (P97287 152-308): as above

With “Bims: Bim isoform, the most potent, expressed from retrovirus in MEFs”, the “long-term survival, GFP+ve colonies” value in assay [1] is “failed to generate colonies; also recorded: No colonies”. Also, in assay [2], the “killing of MEFs” value is given as “soon died”.

Turning to “BidBH3: human Bid BH3 peptide residues 81-104, DIIRNIARHLAQVGDSMDRSIPPG”, in assay [3], the “binding preference among pro-survival proteins” value was “preferred Bcl-xL, Bcl-w and A1 over Bcl-2 or Mcl-1”.

Turning to “H-PAELEVECATQLRRFGDELNFRQKLL-OH [Noxa (18-43) mt1]”, on Bcl-xL, the “fold tighter than wild-type peptide” value is “at least 17 fold” and the “increase in binding to Bcl-xL” value is “more than 20 fold”. The “binding to Bcl-2” value at Bcl-2 is “remained weak”.

Take “PAELEVECATQLRRFGDKLNFRQKLL [Noxa (18-43)]”: the IC50 at Bcl-w (Bcl-w, one of 'the others', read-out: IC50) was above 100 µM; at Bcl-w (competitor peptide vs immobilized wtBimBH3, read-out: IC50 for Bcl-w), above 100 µM; at Bcl-xL (Bcl-xL, b59-60 do not name the target, values match Table 4, read-out: IC50), above 100 µM; at Bcl-xL (setting [4]), above 100 µM; on Bcl-2 (Bcl-2, one of 'the others'), above 100 µM; in assay [3] (Mcl-1 and A1), “nM range”. Moreover, the “binding preference among pro-survival proteins” value in [3] (listed as Noxa BH3) was “selectively binds Mcl-1 and A1”; in assay [3] (listed as NoxaBH3), “highly selective for Mcl-1 and A1”. Moreover, the “binding of A1 to immobilized peptide” value on A1 ΔC20 is on record as “bound”. Also, the “binding of Mcl-1 to immobilized peptide” value on Mcl-1 ΔN151 ΔC23 was “bound”.

Take “BmfBH3: mouse Bmf BH3 peptide residues 128-151, HRAEVQIARKLQCIADQFHRLHTQ”: the “binding preference among pro-survival proteins” value in assay [3] is “showed similar preferences”.

On to “BikBH3: human Bik BH3 peptide residues 51-75, MEGSDALALRLACIGDEMDVSLRAP”, for which the “binding preference among pro-survival proteins” value in assay [3] is “preferred Bcl-xL, Bcl-w and A1 over Bcl-2 or Mcl-1”.

On to “H-PAELEVECATQLRRIGDELNFRQKLL-OH [Noxa (18-43) mt3]”, for which, at Bcl-xL (setting [4]), the IC50 turned out to be 0.11 µM. Moreover, the “Mcl-1 binding” value on Mcl-1 is given as “slightly improved”. Moreover, the “binding to Bcl-2” value at Bcl-2 is “remained weak”.

In the case of “H-PAELEVECATQLRRIGDKLNFRQKLL-OH [Noxa (18-43) mt2]”, at Bcl-xL, the “fold tighter than wild-type peptide” value is reported as “at least 90 fold” and the “increase in binding to Bcl-xL” value is “more than 100 fold”. The “binding to Bcl-2” value at Bcl-2 is listed as “remained weak”.

Consider “Hrk: BH3-only protein Hrk expressed from retrovirus in MEFs”, for which the “killing of MEFs” value in assay [2] is recorded as “much less potent killers”.

Consider “PumaBH3: human Puma BH3 peptide residues 130-155, EEQWAREIGAQLRRMADDLNAQYERR”, for which the “binding preference among pro-survival proteins” value in assay [3] was “comparable affinities for all the pro-survival proteins”.

One may read the IC50 as the concentration that inhibits the measured activity by half.
